# From patent US7250445B1, “Anti-oxidant suppository for treating radiation proctopathy and other anorectal disorders” (priority 2005, dated 2007)
# Assays:
# [1] = tested on: radiation-induced anal ulceration; assay: case of patient with AIDS and anal carcinoma with radiation-induced anal ulceration, oral vitamin A; type: in vivo, human; conditions: single patient
# From the text: (§1) The present inventor recently described a dramatic case of the patient with AIDS and anal carcinoma with developed a large radiation-induced anal ulceration with marked debility. The patient required high dose opioid therapy for control of anal pain. […] Radiation proctopathy is a form of injury of the rectum from radiation therapy administered for pelvic cancers such as cancers of the prostate, uterus and ovary. The present inventor recently designed, conducted and published a randomized double-blinded trial comparing vitamin A in the form of retinol palmitate (10,000 IU by mouth for 90 days) to placebo in patients with radiation proctopathy. […] The other form of vitamin A, (beta carotene), when applied topically, have the potential to enhance the effectiveness of retinol palmitate for treating radiation proctopathy and other anorectal disorders.
# radiation proctopathy [2] = assay: randomized double-blinded trial of vitamin A versus placebo in patients with radiation proctopathy; type: in vivo, human; conditions: retinol palmitate 10,000 IU by mouth for 90 days versus placebo
# From the text: as §1
# wound healing = conditions: following burn injury and surgeries; cited from earlier work
# radiation proctopathy [3] = conditions: topical; cited from earlier work
Compound,persistence of healing and symptomatic relief ([1]; after twelve week oral course),"wound healing and symptoms ([1]; twelve week course, orally administered retinol palmitate)",rectal symptoms of radiation proctopathy (radiation proctopathy [2]),wound healing (wound healing),efficacy for radiation proctopathy (radiation proctopathy [3])
"CCCCCCCCCCCCCCCC(=O)OC/C=C(C)/C=C/C=C(C)/C=C/C1=C(C)CCCC1(C)C [vitamin A, retinol palmitate]",persisted for more than six months,complete wound healing and symptomatic relief,significantly reduced rectal symptoms,accelerate wound healing,–
sucralfate,–,–,–,–,appear to be ineffective
"Nc1ccc(O)c(C(=O)O)c1 [5-ASA, 5-aminosalicylic acid]",–,–,–,–,appear to be ineffective
